This is an account of results in patent publication US11866479B2, “HIV antibody derivatives with dual antiviral and immunomodulatory activities from CD4 and GP41” (priority 2016, dated 2024).

One assay concerns HIV-1 strain NL4-3. Nature of the assay: Neutralization assay (TZM-bl, pseudovirus), NL4-3 isolate. The format is cell-based. The procedure: HIV-1 isolates NL4-3, BaL, AC10, SVBP6, SVBP8, SVBP11, SVBP12, SVBP14, SVBP15, SVBP17, SVBP18 and SVBP19 were generated as pseudoviruses using Env expression plasmids and the pSG3 vector. See Sanchez-Palomino S, et al., Vaccine 2011; 29:5250-5259. Cell-free virus neutralization by the antibody derivatives was tested by a standard TZM-bl based assay. See Li, 2005, supra. Briefly, in a 96-well culture plate, 100 of previously diluted antibody derivatives were preincubated with 50 μL of pseudovirus stock, using 200 TCID50 (tissue culture infectious doses) at 37° C. for one hour. Then, 100 containing 10,000 TZM-bl luciferase-reporter target cells per well were added. Plates were cultured at 37° C. and 5% CO2 for 48 hours. […] A luciferase substrate, Britelite Plus (PerkinElmer, Inc., Waltham, Mass., USA), was used for the readout. Non-linear fit of neutralization data was calculated using normalized values fitted to a one site inhibition curve with variable Hill slope. […]
Briefly, in a 96-well culture plate, 100 μL of previously diluted plasma samples were preincubated with 50 μL of pseudovirus stock, using 200 TCID50 at 37° C. for one hour. […] A luciferase substrate, Britelite Plus (PerkinElmer, Inc., Waltham, Mass., USA), was used for the readout. Non-linear fit of neutralization data was calculated using normalized values fitted to a one site inhibition curve with variable Hill slope. […]

The next assay relates to HIV-1 strain BaL. Kind of assay: Neutralization assay (TZM-bl, pseudovirus), BaL isolate. The class given is cell-based.
The subject of assay [1] is panel of HIV subtype B viruses. Kind of assay: Neutralization assay against panel of HIV subtype B viruses (SVBP isolates). The class given is cell-based, HIV-1.
Protocol: HIV-1 isolates NL4-3, BaL, AC10, SVBP6, SVBP8, SVBP11, SVBP12, SVBP14, SVBP15, SVBP17, SVBP18 and SVBP19 were generated as pseudoviruses using Env expression plasmids and the pSG3 vector. […] Cell-free virus neutralization by the antibody derivatives was tested by a standard TZM-bl based assay. […] Briefly, in a 96-well culture plate, 100 of previously diluted antibody derivatives were preincubated with 50 μL of pseudovirus stock, using 200 TCID50 (tissue culture infectious doses) at 37° C. for one hour. Then, 100 containing 10,000 TZM-bl luciferase-reporter target cells per well were added. Plates were cultured at 37° C. and 5% CO2 for 48 hours. Serial dilutions of the antibody derivatives were tested, from 1000 to 0.1 ng/mL. TZM-bl reporter cells were treated with dextran (Sigma-Aldrich, Saint Louis, Mo., USA) to enhance infectivity. A luciferase substrate, Britelite Plus (PerkinElmer, Inc., Waltham, Mass., USA), was used for the readout. Non-linear fit of neutralization data was calculated using normalized values fitted to a one site inhibition curve with variable Hill slope. All statistical analyses and non-linear fitting were performed using the GraphPad Prism v5.0 software. […]

Protocol for HIV-1 strain BaL: HIV-1 isolates NL4-3, BaL, AC10, SVBP6, SVBP8, SVBP11, SVBP12, SVBP14, SVBP15, SVBP17, SVBP18 and SVBP19 were generated as pseudoviruses using Env expression plasmids and the pSG3 vector. […] Cell-free virus neutralization by the antibody derivatives was tested by a standard TZM-bl based assay. […] Briefly, in a 96-well culture plate, 100 of previously diluted antibody derivatives were preincubated with 50 μL of pseudovirus stock, using 200 TCID50 (tissue culture infectious doses) at 37° C. for one hour. Then, 100 containing 10,000 TZM-bl luciferase-reporter target cells per well were added. Plates were cultured at 37° C. and 5% CO2 for 48 hours. Serial dilutions of the antibody derivatives were tested, from 1000 to 0.1 ng/mL. TZM-bl reporter cells were treated with dextran (Sigma-Aldrich, Saint Louis, Mo., USA) to enhance infectivity. A luciferase substrate, Britelite Plus (PerkinElmer, Inc., Waltham, Mass., USA), was used for the readout. Non-linear fit of neutralization data was calculated using normalized values fitted to a one site inhibition curve with variable Hill slope. All statistical analyses and non-linear fitting were performed using the GraphPad Prism v5.0 software.

Regarding “MOLECULE-0: CD4-IgG1 fusion protein, SEQ ID NO:11”, the “blocking the infectivity of NL4-3 (in words)” value with HIV-1 strain NL4-3 is on record as “lower neutralizing activity”. The “blocking the infectivity of BaL (in words)” value in the assay on HIV-1 strain BaL was “lower neutralizing activity”. Besides, in assay [1], the “neutralization of panel of HIV subtype B isolates (in words)” value is “unable to neutralize primary isolates at 100 ng/mL”.
